No end group written: not given here.
Experiments:
GAPDH:AMPAR complex [1] = target: T1, GAPDH:AMPAR complex (Homo sapiens, UniProt P04406); assay: Co-immunoprecipitation of GAPDH with GluR2 in HEK-293T cells expressing GluR1/GluR2; assay type: cell-based
T1 construct: It should be noted that HEK293T cells expresses endogenous GAPDH; expressed in transfected cells; host or cells: HEK-293T (GluR1 and GluR2 transfected; GAPDH endogenous)
Procedure: (§1) Protein affinity purification, in vitro binding, co-immunoprecipitation and Western blot analyses were performed as previously described (73, 79). Antibodies used for immunoprecipitation, Western blots and cell surface ELISA assays included GAPDH (polyclonal from Abcam, monoclonal from Chemicon), GluR2 (Western blots: Chemicon; immunoprecipitation: Upstate), HA (monoclonal, Covance), α-tubulin (monoclonal, Sigma-Aldrich), LaminB1 (Zymed Laboratories).

[2] = tested on: HEK-293T cells expressing GluR1/2; assay: Quantification of AMPAR-mediated cell death (propidium iodide fluorescence) in HEK-293T cells expressing GluR1/2; assay type: cell-based; conditions: for attenuation/inhibition of AMPAR-mediated (glutamate-induced) cell death: pretreatment 10 μM, 1 hr, 300 μM glutamate, 25 μM CTZ, 24 hr, n=9
Procedure: (§2) Cells were allowed to recover for 24 hours at 37° C. To quantify AMPA-mediated cell death, culture medium was replaced by extracellular solution containing 50 μg/ml of propidium iodide (PI) (Invitrogen). After 30 minutes incubation at 37° C., fluorescence intensity in each well was measured with a plate reader (Victor3; PerkinElmer). […] Primary hippocampal neurons were exposed to 100 μM KA/25 μM cyclothiazide in medium at 37° C. for 1 hour, at 37° C.

[3] = tested on: HEK-293T cells expressing NR1-1a/2A NMDA receptor; assay: NR1-1a/2A NMDA receptor-mediated cell death in HEK-293T cells; assay type: cell-based; conditions: depletion of calcium with 5 mM EGTA; n=9
[4] = tested on: HEK-293T cells expressing GluR1/3; assay: GluR1/3 AMPAR-mediated cell death in HEK-293T cells; assay type: cell-based; conditions: pre-incubation; HEK-293T expressing GluR1/3
Procedure: as §2

p53 = target: T2, p53 (Rattus norvegicus, UniProt P10361); assay: Affinity pull down of p53 from rat hippocampal extracts by GST-GAPDH fragments; assay type: binding
T2 construct: from tissue; host or cells: solubilized nuclear proteins / extracts of rat hippocampus
T2 sequence (P10361 whole entry, the tested form may be a part): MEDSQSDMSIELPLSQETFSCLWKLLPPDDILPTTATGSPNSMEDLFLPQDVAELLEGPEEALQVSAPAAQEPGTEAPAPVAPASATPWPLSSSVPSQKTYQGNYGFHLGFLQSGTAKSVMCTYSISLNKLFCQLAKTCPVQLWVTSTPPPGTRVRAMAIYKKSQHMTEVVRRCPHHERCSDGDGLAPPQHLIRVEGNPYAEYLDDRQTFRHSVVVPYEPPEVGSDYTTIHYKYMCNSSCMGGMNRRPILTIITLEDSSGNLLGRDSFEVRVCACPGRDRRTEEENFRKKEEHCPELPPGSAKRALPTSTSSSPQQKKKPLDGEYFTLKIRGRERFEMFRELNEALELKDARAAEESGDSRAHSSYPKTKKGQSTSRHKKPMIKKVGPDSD
Procedure: as §1
(§3) Thus, we tested whether GluR2NT and GAPDH can interact with p53 using affinity “pull down” purification experiments. […] To identify the p53 interacting domain on GAPDH, GST-fusion proteins encoding truncated fragments of GAPDH were constructed and used in affinity purification assays (FIG. 24D). […] Furthermore, we confirmed the essential role of I221-E250 in maintaining GAPDH-p53 coupling.

GAPDH = target: T3, GAPDH (Rattus norvegicus, UniProt P04797); assay: Affinity purification of GAPDH from rat hippocampal extracts by GST-fusion proteins; assay type: binding; conditions: solubilized rat hippocampal extracts
T3 construct: from tissue; host or cells: detergent extracts of rat hippocampus
T3 sequence (P04797 whole entry, the tested form may be a part): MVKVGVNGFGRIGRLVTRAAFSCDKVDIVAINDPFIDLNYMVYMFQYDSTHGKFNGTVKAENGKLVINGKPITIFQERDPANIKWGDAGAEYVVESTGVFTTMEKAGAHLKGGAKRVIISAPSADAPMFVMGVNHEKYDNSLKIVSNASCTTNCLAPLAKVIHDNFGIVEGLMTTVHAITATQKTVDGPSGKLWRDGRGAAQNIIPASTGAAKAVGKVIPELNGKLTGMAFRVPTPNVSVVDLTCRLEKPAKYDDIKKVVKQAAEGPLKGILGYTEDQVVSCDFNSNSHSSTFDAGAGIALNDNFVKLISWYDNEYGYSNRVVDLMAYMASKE
Procedure: as §1
We then further divided the GluR2 NTa3 region into 30 amino acids GST-fusion proteins and mini-genes (GluR2 NTa3-1: H122-E141, 20 a.a; GluR2 NT1-3-2 Y142-K172, 30 a.a) to delineate the region of GluR2 NTa3 involved in the interactions (FIG. 6A). GluR2 NT1-3-2, but not GluR2 NTa3-1 or GST alone, precipitated GAPDH in rat hippocampal extracts in affinity purification assays (FIG. 6B). This was also supported by a blot overlay experiment where [35S]-GAPDH probe bound with GluR2 NT1-3-2, but not GluR2 NTa3-1 or GST alone (FIG. 6C).

[35S]-GAPDH = target: T4, [35S]-GAPDH (Homo sapiens, UniProt P04406); assay: In vitro binding (blot overlay) with [35S]-GAPDH probe; conditions: in vitro binding assay
T4 construct: made in house
T4 sequence (P04406 whole entry): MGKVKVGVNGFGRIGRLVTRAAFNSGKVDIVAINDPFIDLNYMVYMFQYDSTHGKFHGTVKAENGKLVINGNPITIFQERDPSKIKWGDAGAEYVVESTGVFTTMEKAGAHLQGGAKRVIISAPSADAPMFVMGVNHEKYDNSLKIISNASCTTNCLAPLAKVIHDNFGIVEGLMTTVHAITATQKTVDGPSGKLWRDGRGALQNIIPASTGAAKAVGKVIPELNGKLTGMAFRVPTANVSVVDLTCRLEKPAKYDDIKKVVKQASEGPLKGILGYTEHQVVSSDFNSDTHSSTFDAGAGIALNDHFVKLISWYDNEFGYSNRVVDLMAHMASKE
Procedure: as §1
In order to delineate the region of the GluR2NT involved in the interaction with the GAPDH, three GluR2NT GST-fusion proteins [GluR2 NTa V22-S271, (250 a.a), GluR2 NTb K272-421, (150 a.a), GluR2 NTc L422-E545, (124 a.a)] were constructed (FIG. 4A). In affinity purification assays, GluR2 NTa, but not GluR2 NTb, GluR2 NTc or GST alone precipitated GAPDH in rat hippocampal brain extract (FIG. 4B). […] To clarify the nature of the interaction, blot overlay experiments were performed, which provided in vitro evidence for a direct interaction. GluR2 NTa, GluR2 NTb and GluR2 NTc were probed with in vitro translated [35S]-methionine labelled peptides encoding GAPDH ([35S]-GAPDH). The [35S]-GAPDH probe bound with GluR2 NTa, but not GluR2 NTb or GluR2 NTc. […]

[5] = tested on: cultured rat hippocampal neurons; assay: AMPAR-mediated cell death (PI fluorescence) in cultured rat hippocampal neurons; assay type: cell-based; conditions: 100 μM KA, 10 μM MK-801, 2 μM nimodipine, 1 hr; n=9
Procedure: (§4) Primary cultures from hippocampus were prepared from fetal Wistar rats (embryonic day 17-19) on Cell^+ (Sarstedt) culture dishes as previously described (73). The cultures were used for experiments on 12-15 d after plating. Hippocampal cultures were pretreated with GluR2 NT1-3-2 peptides before kainic acid treatment.
Cells were allowed to recover for 24 hours at 37° C. To quantify AMPA-mediated cell death, culture medium was replaced by extracellular solution containing 50 μg/ml of propidium iodide (PI) (Invitrogen). After 30 minutes incubation at 37° C., fluorescence intensity in each well was measured with a plate reader (Victor3; PerkinElmer). […]
To examine the GAPDH:AMPAR interactions in a relevant cellular milieu, primary cultures of rat hippocampal neurons were utilized in parallel experiments. We have previously shown in FIG. 21C that pre-incubating hippocampal neurons with the GluR2 NT1-3-2 peptide could disrupt the GAPDH-GluR2 interaction that was promoted by AMPAR activation. We subsequently examined if disruption of this interaction in hippocampal neurons could rescue cells from AMPAR-mediated cell death. AMPAR-mediated cell death was induced by pretreating neurons with kainic acid (KA; 100 μM, 1 hour) in the presence of NMDA receptor and Ca^2+ channel antagonists (10 μM MK-801 and 2 μM nimodipine, respectively).

[6] = tested on: nontransfected HEK-293T cells; assay: Cell death in HEK-293T cells in the absence of GluR1/GluR2 co-expression; assay type: cell-based
Procedure: as §2

[7] = tested on: transfected HEK-293T cells; assay: Cell-ELISA of cell surface GluR2 and GAPDH in transfected HEK-293T cells; assay type: cell-based; conditions: GluR1/GluR2; glutamate
Procedure: Cell-ELISA assays (colorimetric assays) were done essentially as previously described (82). […] Cells were incubated in 1% (W/V) glycine for 10 minutes at 4° C. to recover from the fixing. Cells were then incubated with a monoclonal antibody against specific antibodies for the purpose of labeling the receptors or proteins on the cell surface under non-permeabilized conditions or the entire receptor pool under permeabilized conditions. After incubation with corresponding HRP-conjugated secondary antibodies (Sigma-Aldrich), the HRP substrate o-phenylenediamine (Sigma-Aldrich Co) was added to produce a color reaction that was stopped with the equal volume of 3N HCl. Fluorescence intensity in each well was measured with a plate reader (Victor3; PerkinElmer). […] Afterwards, cells were scrapped from the dishes, and the protein concentration of each dish was measured. The results of cell surface expression of receptors or proteins were calibrated by the protein concentration of each well. Analysis was done using at least 9 separate wells in each group.
GAPDH:AMPAR complex [8] = target: T5, GAPDH:AMPAR complex (Rattus norvegicus, UniProt P04797); assay: Co-immunoprecipitation of GAPDH with GluR2 in primary cultures of rat hippocampal neurons; assay type: cell-based; conditions: preincubation 10 μM, 1 hour; 100 μM kainic acid, 30 min
T5 construct: endogenous in cells; host or cells: primary hippocampal neurons from fetal Wistar rats
T5 sequence (P04797 whole entry, one chain of several): as the sequence (P04797 whole entry, the tested form may be a part) above
Procedure: as §4, §1

[9] = tested on: HEK-293T cells cotransfected with GluR1/GluR2; assay: Nuclear translocation of GAPDH and GluR2 in HEK-293T cells (nuclei, Western blot); assay type: cell-based; conditions: peptide 10 μM, 1 hr; glutamate 100 μM, 30 min
Procedure: as §1
(§5) Nuclei isolation was prepared as described previously (55, 66). Briefly, cells were gently rinsed twice with ice-cold PBS. And scraped in 1 ml of solution 1 (10 mM Tris-HCl, pH7.4, 100 mM NaCl2, 2.5 mM MgCl2, 0.5% NP-40, proteinase inhibitor and PMSF) per 10-cm plate. Then cells were homogenized by four passages through a 25-gauge needle and spin at 3000 g briefly. Pellets containing nuclei were subsequently utilized in biochemical assays.

hippocampal neurons = assay: Nuclear translocation of GAPDH and GluR2 in hippocampal neurons; assay type: cell-based, rat; conditions: peptide 10 μM, 1 hr; 100 μM KA, 10 μM MK-801, 2 μM nimodipine, 30 min
Procedure: as §4, §1, §5

GAPDH-p53 interaction = assay: Co-immunoprecipitation of GAPDH with p53; assay type: cell-based; conditions: extracted nuclear proteins; AMPAR activation
Procedure: as §1, §5, §3

hippocampal CA1 neurons = assay: Four vessel occlusion ischemia model, cresyl violet-stained nuclei in CA1; assay type: in vivo, rat; conditions: 1 μM, 0.5 μl into hippocampus, 5-day recirculation
Procedure: In this study, a cannula (small diameter stainless steel tubes) was implanted in the animal one week before surgery. This cannula was used to deliver the peptide GluR2 NT1-3-2 (1 μM, 0.5 μl) into hippocampus where GAPDH-GluR2 interaction is considered to occur. On the surgery day, the four vessel occlusion ischemia model was performed in order to induce ischemia. Animals were treated with the peptide GluR2 NT1-3-2 either before (30 min) or after (2 hour) the induction of ischemia to examine the neuroprotective effect of the peptide. After a 5-day recirculation period, animals were decapitated, the brains were removed and dissected to harvest the hippocampus. Cresyl violet was used to stain alive neurons in hippocampus region of each animal. Cresyl violet-stained nuclei were observed by microscope and total number of stained nuclei in CA 1 region was summarized and normalized to the sham-operated group.

T1 sequence (P04406 2-335 limits assumed, one chain of several): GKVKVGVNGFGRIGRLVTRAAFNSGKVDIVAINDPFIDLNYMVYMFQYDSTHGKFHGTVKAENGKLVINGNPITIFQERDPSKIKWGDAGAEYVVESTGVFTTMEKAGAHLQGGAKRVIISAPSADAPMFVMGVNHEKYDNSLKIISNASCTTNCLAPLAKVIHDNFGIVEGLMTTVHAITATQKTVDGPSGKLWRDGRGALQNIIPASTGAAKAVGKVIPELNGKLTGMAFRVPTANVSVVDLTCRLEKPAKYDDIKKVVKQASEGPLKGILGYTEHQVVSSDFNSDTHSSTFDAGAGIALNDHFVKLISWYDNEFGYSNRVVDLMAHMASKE

## N#Cc1cc2c(cc1[N+](=O)[O-])=NC(=O)C(=O)N=2 [CNQX, 6-cyano-7-nitroquinoxaline-2,3-dione]
GAPDH:AMPAR complex [1]; glutamate-activated AMPA receptor
  association between GAPDH and GluR2 with antagonist: decreased

## O=C(O)CN(CCOCCOCCN(CC(=O)O)CC(=O)O)CC(=O)O [EGTA, reference compound]
[2]; 5 mM EGTA
  GluR1/GluR2 AMPAR-mediated cell death on depletion of calcium: remained intact
[3]
  inhibition of NR1-1a/2A NMDA receptor-mediated cell death: 38±3.6%

## N[C@@H](CCC(=O)O)C(=O)O [Glutamate]
GAPDH:AMPAR complex [1]
  CO-IP of GAPDH by the GluR2 subunit antibody on agonist activation: increase

## Cc1ccc(-c2cn3c4c(sc3n2)CCCC4)cc1 [cyclic PFT-α, reference compound]
[2]
  attenuation/inhibition of AMPAR-mediated (glutamate-induced) cell death: 49.8±8.3%
[4]
  inhibition of GluR1/3 AMPAR-mediated (glutamate-induced) cell death: failed to inhibit

## GST-GAPDH(2-2-1-1): GST-fusion protein encoding truncated GAPDH fragment I221-E250
p53
  pull down of p53: specifically pulled down

## GST-GluR2 NT1-3-2: GST-fusion protein of GluR2 NT1-3-2 Y142-K172 (YYQWDKFAYLYDSDRGLSTLQAVLDSAAEKK; not fully specified (N-terminus); also: GST fusion partner)
GAPDH
  affinity precipitation of GAPDH (Western blot): presence of GAPDH
[35S]-GAPDH
  binding of [35S]-GAPDH probe: bound

## GluR2 NT1-3-2 peptide: polypeptide of the GluR2 NT1-3-2 (Y142-K172) amino acid sequence (SEQ ID NO:1) (YYQWDKFAYLYDSDRGLSTLQAVLDSAAEKK; Y142-K172 of GluR2 subunit receptor from homo sapiens)
[2]; GluR1/2 transfected cells, no glutamate
  effect of the peptide itself on cell death in the absence of glutamate treatment: no effect
[2]
  attenuation/inhibition of AMPAR-mediated (glutamate-induced) cell death: 56±1.6%
[5]
  inhibition of AMPAR-mediated cell death: 47.6±3.3%
[4]
  inhibition of GluR1/3 AMPAR-mediated (glutamate-induced) cell death: failed to inhibit
[6]
  effect of the peptide itself in the absence of GluR1/GluR2 co-expression: no effect
[7]
  agonist-induced GAPDH internalization after preincubation of peptide: abolished
GAPDH:AMPAR complex [1]; preincubation 10 μM, 1 hour, 100 μM glutamate, 30 min
  agonist-induced increase in GAPDH:AMPAR complex formation: significantly inhibited
GAPDH:AMPAR complex [8]
  agonist-induced increase in GAPDH:AMPAR complex formation: significantly inhibited
[9]
  nuclear translocation of GAPDH and GluR2: blocked
Hippocampal neurons
  nuclear translocation of GAPDH and GluR2: blocked
GAPDH-p53 interaction
  GAPDH-p53 interaction after peptide pretreatment: inhibited
Hippocampal CA1 neurons; 30 min before ischemia
  neurons rescued from cell death, peptide treatment before ischemia: 18.2%
Hippocampal CA1 neurons; 2 hour after ischemia
  neurons rescued from cell death, peptide treatment after ischemia: 13.2%
